PMC6934184, “Selective DNA-PKcs inhibition extends the therapeutic index of localized radiotherapy and chemotherapy” (The Journal of Clinical Investigation, 2019)

Molecular target: T1, NEK2 (Homo sapiens, UniProt P51955)
T1 construct: purchased Thermo Fisher Scientific (Life Technologies) SelectScreen
Assay: SelectScreen Z'LYTE
Format: biochemical
Summary of the method: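 NU5455 was profiled across the SelectScreen Broad panel of kinase activity and binding assays. Z'LYTE reactions such as CSF1R ran at apparent Km ATP, while the Adapta CAMK1 assay used ATP listed as 10. Values are given as percent.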

T1 sequence (P51955 whole entry): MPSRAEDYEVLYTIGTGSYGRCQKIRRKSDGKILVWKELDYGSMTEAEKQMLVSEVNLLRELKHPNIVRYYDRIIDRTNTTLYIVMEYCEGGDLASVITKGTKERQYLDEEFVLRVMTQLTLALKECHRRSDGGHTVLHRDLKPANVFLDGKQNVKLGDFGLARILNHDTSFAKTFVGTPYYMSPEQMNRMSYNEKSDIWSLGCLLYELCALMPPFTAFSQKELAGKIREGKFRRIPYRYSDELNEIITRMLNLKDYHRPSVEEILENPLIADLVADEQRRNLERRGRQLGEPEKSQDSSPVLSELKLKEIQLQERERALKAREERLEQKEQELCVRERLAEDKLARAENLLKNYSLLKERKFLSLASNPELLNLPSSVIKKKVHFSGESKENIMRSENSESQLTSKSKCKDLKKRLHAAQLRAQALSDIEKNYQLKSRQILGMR

## CN(C(=O)CN1CCOCC1)c1ccc2sc3c(-c4cccc5c(=O)cc(N6CC7CCC(C6)O7)oc45)cccc3c2c1 [NU5455]
  inhibition at 1 µM: 17.8%
